Experimental data reported in EP4796530A1 (Biocells (Beijing) Biotech Co., Ltd., priority 2023, dated 2025).
Like-named read-outs stand apart in the source and are kept apart here.

Assays:
NLRP3 [1] = molecular target: T1, NLRP3 (Mus musculus, UniProt Q8R4B8); assay: Inhibition of canonical NLRP3 activation (LPS+ATP/Nig) in J774A.1 cells, IL-1β release by ELISA, single concentration; type: cell-based; set-up: The mouse macrophage cell line J774A.1 was used, and LPS was used as the first signal; host or cells: J774A.1 mouse monocyte-macrophage cell line
Experimental: J774A.1 cells were plated in a 48-well plate at a density of 1.0×10^6 cells/mL, with 300 µL per well. Subsequently, NLRP3 was activated using LPS+5 mM ATP (adenosine triphosphate) or 10 µM Nig (nigericin). […] ATP was purchased from Sigma, Cat. No.: L2654. Nig was purchased from Shanghai Yuanye Bio-Technology Co., Ltd., Cat. No.: S45490.
Experimental groups: a negative control group, an LPS-alone incubation control group, an LPS+ATP or +Nig positive control group, and an example compound experimental group.
After the plated J774A.1 cells adhering to the plate, the culture medium was replaced. For all the groups except the negative control group, the culture medium was completely replaced with cell culture medium containing 1 µg/mL LPS. The negative control group received cell culture medium. Then, all the groups were incubated overnight. 18 h later, the culture medium was replaced again. The culture medium of the example compound experimental group was completely replaced with cell culture medium containing the compounds; while the negative control group, the LPS-alone incubation control group, and the LPS+ATP/Nig positive control group received cell culture medium. 1 h later, the culture mediums of the LPS+ATP/Nig positive control group and the example compound experimental group were completely replaced with cell culture medium containing 5 mM ATP or 10 µM Nig. 1 h later, the cell supernatants were collected for IL-1β detection.
Therefore, the relative change in the amount of IL-1β release may directly reflect NLRP3 inhibitory effect.

NLRP3 [2] = molecular target: T1, NLRP3; assay: Inhibition of APOE peptide-induced NLRP3 activation in J774A.1 cells, IL-1β release; type: cell-based; set-up: The mouse macrophage cell line J774A.1 was used, and LPS was used as the first signal; host or cells: J774A.1 mouse monocyte-macrophage cell line; details: J774.A1, 10 µM compound, 30 µg/mL APOE peptide
Experimental: J774A.1 cells were plated in a 48-well plate at a density of 1.0×10^6 cells/mL, with 300 µL per well. Subsequently, NLRP3 was activated by APOE peptide. The cell culture medium comprises: DMEM (brand: Gibco, Cat. No.: C12430500) + 10% fetal bovine serum (brand: Gibco, Cat. No.: 10099-141) + 1% sodium pyruvate (brand: Gibco, Cat. No.: 11360-070) + 1% penicillin-streptomycin solution (brand: Solarbio, Cat. No.: P1400). The J774A.1 mouse monocyte-macrophage cell line was purchased from the Cell Resource Center of the Institute of Basic Medical Sciences of Chinese Academy of Medical Sciences (Resource No. 1101MOU-PUMC000222). APOE2/3 peptide 1-151 was obtained through recombinant protein expression and purification by Biocells (Beijing) Biotech Co., Ltd. The procedures were as follows: the sequence (SEQ ID NO: 1) shown below was inserted into the pET-28A plasmid and transformed into BL-21(DE3) expression strain; the expression of target protein was induced with IPTG at a low temperature; after collecting the bacteria via centrifugation, ultrasonic disruption was performed; and after centrifugation, the supernatant was purified by nickel ion affinity chromatography (AKTA pure), and then the product was concentrated by ultrafiltration and identified by BCA+protein electrophoresis. Sequence: [formula]
Experimental groups: a negative control group, an APOE treatment control group, and an example compound experimental group.
After the plated J774A.1 cells adhering to the plate, the culture medium was replaced. The culture medium of the APOE treatment control group was replaced with cell culture medium containing 30 µg/mL APOE peptide, the culture medium of the example compound experimental group was replaced with culture medium containing 30 µg/mL APOE peptide combined with the compounds, and the negative control group received cell culture medium. Then, all the groups were incubated overnight. 18 h later, the cell supernatants were collected for IL-1β detection.
Activation of NLRP3 by APOE peptide will result in release of mature IL-1β, and the release can be inhibited by NLRP3 inhibitors. Therefore, the relative change in the amount of IL-1β release may directly reflect NLRP3 inhibitory effect.
In this experimental example, effective inhibition refers to a reduction of 70% or more in the release amount, compared with the release amount of the positive control minus the negative control.

[3] = Mouse pharmacokinetics after intravenous administration (plasma and brain, LC-MS); type: in vivo; details: C57 mice, intravenous 5 mg/kg
Experimental: C57 mice were administered intravenously, at a dosage concentration of 5 mg/kg in each group. Retro-orbital blood collection was performed on the mice at 1 min, 30 min, 1 h, and 2 h post-dosing. The collected blood was centrifuged at 3000 rpm for 10 min at 4 °C to obtain plasma. Acetonitrile was added at a 1:3 volume ratio of plasma: acetonitrile to precipitate proteins. After centrifugation, the supernatant was collected and filtered. The concentration of the compound was detected using LC-MS (Agilent 1260-G6125, SIM mode). In addition, 2 h after drug injection, the mice were subjected to cardiac perfusion and then their brains were harvested. Following tissue homogenization and centrifugation, the supernatant was collected. Acetonitrile was added at a 1:3 volume ratio of supernatant: acetonitrile to precipitate proteins. After centrifugation, the supernatant was collected and filtered. The concentration of the compound was detected using LC-MS (Agilent 1260-G6125, SIM mode).
Experimental groups: a vehicle control group, and a dosing group.

[4] = J774.A1, 1 µM compound, LPS + 5 mM ATP or 10 µM Nig, compared with the positive control, read-out: inhibition of IL-1β release

T1 sequence (Q8R4B8 whole entry): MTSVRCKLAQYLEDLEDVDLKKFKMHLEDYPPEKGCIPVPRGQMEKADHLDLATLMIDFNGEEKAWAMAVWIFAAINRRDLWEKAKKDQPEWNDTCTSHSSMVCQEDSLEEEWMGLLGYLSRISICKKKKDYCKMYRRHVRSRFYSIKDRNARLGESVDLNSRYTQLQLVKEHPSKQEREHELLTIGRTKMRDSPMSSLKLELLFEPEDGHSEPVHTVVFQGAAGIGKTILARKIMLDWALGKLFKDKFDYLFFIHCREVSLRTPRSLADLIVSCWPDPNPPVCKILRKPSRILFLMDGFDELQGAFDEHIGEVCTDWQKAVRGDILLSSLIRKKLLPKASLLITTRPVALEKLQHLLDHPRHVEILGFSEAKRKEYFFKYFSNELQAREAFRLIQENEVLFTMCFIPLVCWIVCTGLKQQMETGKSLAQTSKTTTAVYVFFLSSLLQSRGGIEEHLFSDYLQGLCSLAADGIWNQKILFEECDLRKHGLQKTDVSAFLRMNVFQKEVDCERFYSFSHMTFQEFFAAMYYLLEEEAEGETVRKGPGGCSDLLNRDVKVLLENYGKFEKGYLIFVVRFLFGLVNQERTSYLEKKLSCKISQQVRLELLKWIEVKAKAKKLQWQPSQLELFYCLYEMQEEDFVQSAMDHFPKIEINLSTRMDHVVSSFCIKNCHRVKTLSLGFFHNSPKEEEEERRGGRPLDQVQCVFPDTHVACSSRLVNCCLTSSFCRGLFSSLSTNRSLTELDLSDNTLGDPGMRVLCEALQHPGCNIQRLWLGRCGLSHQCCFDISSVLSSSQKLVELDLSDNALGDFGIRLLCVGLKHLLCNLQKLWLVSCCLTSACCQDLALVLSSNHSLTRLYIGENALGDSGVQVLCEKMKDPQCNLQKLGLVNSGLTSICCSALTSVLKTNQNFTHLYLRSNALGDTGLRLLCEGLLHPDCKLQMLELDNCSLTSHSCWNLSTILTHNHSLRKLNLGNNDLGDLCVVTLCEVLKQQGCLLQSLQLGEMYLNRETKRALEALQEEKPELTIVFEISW

Question: With `COc1c(F)cc(S(=O)(=O)NC(=O)Nc2c3c(cc4c2CCC4)CCC3)cc1CN(C)C` [Example 16, 3-((dimethylamino)methyl)-5-fluoro-N-((1,2,3,5,6,7-hexahydro-s-indacen-4-yl)carbamoyl)-4-methoxybenzenesulfonamide] as the molecule, how does the inhibition at 1 µM (NLRP3 [1]; [4]) read?
Answer: 20 to 80%

Question: For `CCOc1ccc(S(=O)(=O)NC(=O)Nc2c3c(cc4c2CCC4)CCC3)cc1CN(C)C` [Example 14, 3-((dimethylamino)methyl)-4-ethoxy-N-((1,2,3,5,6,7-hexahydro-s-indacen-4-yl)carbamoyl)benzenesulfonamide], which inhibition at 1 µM (NLRP3 [1]; [4]) is on record?
Answer: > 80%

Question: And the inhibition at 10 µM (NLRP3 [2])?
Answer: ≥ 70%

Question: Which inhibition at 1 µM (NLRP3 [1]; [4]) does the source give for `CN(C)Cc1cc(S(=O)(=O)NC(=O)Nc2c3c(cc4c2CCC4)CCC3)ccc1N` [Example 7, 4-amino-3-((dimethylamino)methyl)-N-((1,2,3,5,6,7-hexahydro-s-indacen-4-yl)carbamoyl)benzenesulfonamide] here?
Answer: > 80%

Question: For `CCN(CC)Cc1cc(S(=O)(=O)NC(=O)Nc2c3c(cc4c2CCC4)CCC3)ccc1OC` [Example 13], which “inhibition of IL-1β release” value (NLRP3 [1]; 1 µM compound, LPS + 5 mM ATP or 10 µM Nig, compared with the positive control) is on record?
Answer: no inhibitory effect

Question: Which inhibition at 1 µM (NLRP3 [1]; [4]) does the source give for `CC(C)Oc1ccc(S(=O)(=O)NC(=O)Nc2c3c(cc4c2CCC4)CCC3)cc1CN(C)C` [Example 15, 3-((dimethylamino)methyl)-N-((1,2,3,5,6,7-hexahydro-s-indacen-4-yl)carbamoyl)-4-isopropoxybenzenesulfonamide] here?
Answer: > 80%

Question: For `CN(C)Cc1cccc(S(=O)(=O)NC(=O)Nc2c3c(cc4c2CCC4)CCC3)c1F` [Example 24, 3-((dimethylamino)methyl)-2-fluoro-N-((1,2,3,5,6,7-hexahydro-s-indacen-4-yl)carbamoyl)benzenesulfonamide], which inhibition at 1 µM (NLRP3 [1]; [4]) is on record?
Answer: > 80%

Question: And the inhibition at 10 µM (NLRP3 [2])?
Answer: ≥ 70%

Question: Which inhibition at 1 µM (NLRP3 [1]; [4]) does the source give for `CN(C)Cc1cc(S(=O)(=O)NC(=O)Nc2c3c(cc4c2CCC4)CCC3)ccc1Cl` [Example 8, 4-chloro-3-((dimethylamino)methyl)-N-((1,2,3,5,6,7-hexahydro-s-indacen-4-yl)carbamoyl)benzenesulfonamide] here?
Answer: 20 to 80%

Question: Which inhibition at 1 µM (NLRP3 [1]; [4]) does the source give for `CN(C)Cc1ccc(F)c(S(=O)(=O)NC(=O)Nc2c3c(cc4c2CCC4)CCC3)c1` [Example 2, 5-((dimethylamino)methyl)-2-fluoro-N-((1,2,3,5,6,7-hexahydro-s-indacen-4-yl)carbamoyl)benzenesulfonamide] here?
Answer: > 80%

Question: With `CN(C)Cc1cc(S(=O)(=O)NC(=O)Nc2c3c(cc4c2CCC4)CCC3)ccc1OCc1ccccc1` [Example 4] as the molecule, how does the inhibition at 1 µM (NLRP3 [1]; J774.A1, read-out: inhibition of IL-1β release, 1 µM compound, LPS + 5 mM ATP or 10 µM Nig, compared with the positive control) read?
Answer: > 80%

Question: For `CN(C)Cc1ccc(Cl)c(S(=O)(=O)NC(=O)Nc2c3c(cc4c2CCC4)CCC3)c1` [Example 10, 2-chloro-5-((dimethylamino)methyl)-N-((1,2,3,5,6,7-hexahydro-s-indacen-4-yl)carbamoyl)benzenesulfonamide], which inhibition at 1 µM (NLRP3 [1]; [4]) is on record?
Answer: > 80%

Question: For `CN1CCc2ccc(S(=O)(=O)NC(=O)Nc3c4c(cc5c3CCC5)CCC4)cc2C1` [Example 29, N-((1,2,3,5,6,7-hexahydro-s-indacen-4-yl)carbamoyl)-2-methyl-1,2,3,4-tetrahydroisoquinoline-7-sulfonamide], which concentration at 120 min ([3]; brain after cardiac perfusion, read-out: brain drug concentration at 120 min) is on record?
Answer: 197 ng/mL

Question: And the half-life ([3]; plasma)?
Answer: 1.65 h

Question: And the AUC ([3]; plasma, read-out: area under the curve (AUC) from 1 to 120 min)?
Answer: 14900 ng·h/mL

Question: With `COc1cc(F)c(S(=O)(=O)NC(=O)Nc2c3c(cc4c2CCC4)CCC3)cc1CN(C)C` [Example 20, 5-((dimethylamino)methyl)-2-fluoro-N-((1,2,3,5,6,7-hexahydro-s-indacen-4-yl)carbamoyl)-4-methoxybenzenesulfonamide] as the molecule, how does the inhibition at 1 µM (NLRP3 [1]; [4]) read?
Answer: > 80%

Question: What about the inhibition at 10 µM (NLRP3 [2]) of the same molecule?
Answer: ≥ 70%

Question: Which inhibition at 1 µM (NLRP3 [1]; [4]) does the source give for `CN(C)Cc1ccc(N)c(S(=O)(=O)NC(=O)Nc2c3c(cc4c2CCC4)CCC3)c1` [Example 12, 2-amino-5-((dimethylamino)methyl)-N-((1,2,3,5,6,7-hexahydro-s-indacen-4-yl)carbamoyl)benzenesulfonamide] here?
Answer: 20 to 80%

Question: Which inhibition at 1 µM (NLRP3 [1]; [4]) does the source give for `CN(C)Cc1ccc([N+](=O)[O-])c(S(=O)(=O)NC(=O)Nc2c3c(cc4c2CCC4)CCC3)c1` [Example 11, 5-((dimethylamino)methyl)-N-((1,2,3,5,6,7-hexahydro-s-indacen-4-yl)carbamoyl)-2-nitrobenzenesulfonamide] here?
Answer: > 80%

Question: For `CN(C)Cc1cc(S(=O)(=O)NC(=O)Nc2c3c(cc4c2CCC4)CCC3)ccc1F` [Example 6, 3-((dimethylamino)methyl)-4-fluoro-N-((1,2,3,5,6,7-hexahydro-s-indacen-4-yl)carbamoyl)benzenesulfonamide], which inhibition at 1 µM (NLRP3 [1]; [4]) is on record?
Answer: > 80%

Question: With `CN(C)Cc1cccc(S(=O)(=O)NC(=O)Nc2c3c(cc4c2CCC4)CCC3)c1[N+](=O)[O-]` [Example 18, 3-((dimethylamino)methyl)-N-((1,2,3,5,6,7-hexahydro-s-indacen-4-yl)carbamoyl)-2-nitrobenzenesulfonamide] as the molecule, how does the inhibition at 1 µM (NLRP3 [1]; [4]) read?
Answer: > 80%

Question: And the inhibition at 10 µM (NLRP3 [2])?
Answer: ≥ 70%

Question: What does the source list for `CN(C)Cc1c(F)ccc(S(=O)(=O)NC(=O)Nc2c3c(cc4c2CCC4)CCC3)c1F` [Example 23, 3-((dimethylamino)methyl)-2,4-difluoro-N-((1,2,3,5,6,7-hexahydro-s-indacen-4-yl)carbamoyl)benzenesulfonamide]?
Answer: inhibition at 1 µM (NLRP3 [1]; [4]): > 80%; inhibition at 10 µM (NLRP3 [2]): ≥ 70%

Question: For `CN(C)Cc1cc(S(=O)(=O)NC(=O)Nc2c3c(cc4c2CCC4)CCC3)ccc1OC(F)(F)F` [Example 9, 3-((dimethylamino)methyl)-N-((1,2,3,5,6,7-hexahydro-s-indacen-4-yl)carbamoyl)-4-(trifluoromethoxy)benzenesulfonamide], which inhibition at 1 µM (NLRP3 [1]; [4]) is on record?
Answer: 20 to 80%

Question: With `COc1ccc(S(=O)(=O)NC(=O)Nc2c3c(cc4c2CCC4)CCC3)c(Cl)c1CN(C)C` [Example 28, 2-chloro-3-((dimethylamino)methyl)-N-((1,2,3,5,6,7-hexahydro-s-indacen-4-yl)carbamoyl)-4-methoxybenzenesulfonamide] as the molecule, how does the inhibition at 1 µM (NLRP3 [1]; [4]) read?
Answer: > 80%

Question: Which results are given for `CN(C)Cc1ccc(F)c(S(=O)(=O)NC(=O)Nc2c3c(cc4c2CCC4)CCC3)c1F` [Example 25, 3-((dimethylamino)methyl)-2,6-difluoro-N-((1,2,3,5,6,7-hexahydro-s-indacen-4-yl)carbamoyl)benzenesulfonamide]?
Answer: inhibition at 1 µM (NLRP3 [1]; [4]): > 80%; inhibition at 10 µM (NLRP3 [2]): ≥ 70%
